Numbers after ± are expanded uncertainties.
Conditions: Liquid

CN1CCOCC1 [N-methylmorpholine]
Conditions | mass density [kg/m3] | viscosity [mPa·s]
293.15 K | 918.74 ± 1.4 | 1.028 ± 0.1
303.15 K | 909.54 ± 1.5 | 0.959 ± 0.096
313.15 K | 902.37 ± 1.5 | 0.858 ± 0.087
323.15 K | 893.32 ± 1.5 | 0.754 ± 0.078
333.15 K | 884.36 ± 1.6 | 0.626 ± 0.067
343.15 K | 876.52 ± 1.6 | 0.498 ± 0.056
